# Measurements reported in publication PMC10609996, “The Toxicological Assessment of Anoectochilus burmannicus Ethanolic-Extract-Synthesized Selenium Nanoparticles Using Cell Culture, Bacteria, and Drosophila melanogaster as Suitable Models” (Nanomaterials, 2023).
# “And” between values parts separate entries of the source, which are not always exact repeats. Identical values can stand only once.
# Tests used:
# [1] = test system: Salmonella typhimurium TA 100; test: Ames test, anti-mutagenicity, TA 100; assay type: cell-based
# Procedure: The antimutagenicity was indicated based on percentage inhibition which was calculated as in the following equation:Antimutagenicity (%) = [1 − (b/a)] × 100
# (§1) • a = revertant colony number induced via standard mutagen (positive control) • b = revertant colony number induced by standard mutagen in the presence of each sample treatment
# [2] = test system: Salmonella typhimurium TA 98; test: Ames test, mutagenicity, TA 98
# Procedure: (§2) 2-aminoanthracene (2-AA) and 2-(2-furyl)-3-(5-nitro-2-furyl)-acrylamide (AF-2) standard mutagens were used as positive control. 2-AA was used in the presence of S9 mixture, while AF-2 was used without the S9 mixture. Deionized water (DI) and DMSO were used as negative controls for the samples and mutagens, respectively. The mixture solution was poured onto the minimal histidine agar and then incubated at 37 °C for 48 h. The revertant colonies formed on the agar plate were scored.
# (§3) Three plates were investigated per dose in two independent experiments for both mutagenicity and antimutagenicity tests.
# hPBMCs = test: Cytotoxicity on hPBMCs (SRB assay); conditions: at up to 16 µM of Se
# Procedure: (§4) Human blood samples of healthy subjects were obtained from Maharaj Hospital, Chiang Mai, Thailand, which were anonymized by the laboratory and kept in a heparinized tube. […] The remaining RBCs were used in a hemolysis assay. […] Consent to participate was not applicable because of anonymous data collection. All methods were carried out following relevant guidelines and regulations.
# MRC-5 = test: Cytotoxic assay (MTT) in MRC-5; assay type: cell-based, human; conditions: MRC-5, MTT
# Procedure: (§5) Cell viability (%) = (Absorbance (sample))/(Absorbance (control)) × 100 […]
# (§6) Cell proliferation was determined using an MTT assay at indicated time.
# (§7) The solution was gently removed, then the crystal was dissolved by dimethyl sulfoxide (DMSO). The cell viability is directly related to the […]
# (§8) to a decrease in cell numbers. […]
# (§9) the starting point (0 h) (B-E).
# [3] = test system: Salmonella typhimurium TA 98; test: Ames test, anti-mutagenicity, TA 98; assay type: cell-based
# LX-2 = test: Cytotoxic assay (MTT) in LX-2; assay type: cell-based, human; conditions: LX-2, MTT
# Procedure: as §5, §6, §7, §8, §9
# 3T3-L1 = test: Cytotoxic assay (MTT) in 3T3-L1; conditions: at up to 16 µM
# HEK-293 = test: Cytotoxic assay (MTT) in HEK-293; assay type: cell-based, human; conditions: HEK-293, MTT
# Procedure: as §5, §6, §7, §8, §9
# hRBCs = test: Hemolysis assay
# Procedure: as §4
# Human RBCs were collected after the separation of hPBMCs from whole blood. The 5% RBCs suspension then was mixed with several concentrations of the various forms of selenium and incubated at 37 °C for three hours. […] Hemoglobin released by damaged cells can be used as a marker of red blood cell lysis following test agent exposure and can notice as a red-color solution that can be measured for absorbance using spectrophotometry. Triton X-100 was used as a positive control.
# Caco2 = test: Cytotoxic assay (MTT) in Caco2; assay type: cell-based, human
# Procedure: as §5, §6, §7, §8, §9
# [4] = test system: Salmonella typhimurium TA 100; test: Ames test, mutagenicity, TA 100
# Procedure: as §2, §3
# [5] = test system: Salmonella typhimurium TA 98; test: Ames test, anti-mutagenicity, TA 98; assay type: cell-based; conditions: TA 98, +S9, PhIP (0.1 µg/Plate)
# Procedure: To determine the antimutagenicity of the samples, 6-phenylimidazo [4,5-b]pyridine (PhIP) and 2-Amino-3-methylimidazo [4,5-f]quinoline (IQ) were used as standard mutagens (positive control) in the test of TA98 and TA100, respectively, in the presence of S9 mixture. The antimutagenicity was indicated based on percentage inhibition which was calculated as in the following equation:Antimutagenicity (%) = [1 − (b/a)] × 100
# as §1
# Drosophila melanogaster [6] = test: SMART (wing spot test), anti-mutagenicity; conditions: mutagen alone, 1 mM
# Procedure: The wing spots were scored as mentioned above. The percentage of anti-mutagenicity of the nanoparticles (% inhibition) was calculated as in the following equation:Antimutagenicity (%) = [(a − b)/a] × 100
# • a = number of total spots per wing of positive mutagen control group • b = number of total spots per wing of each experimental group
# Drosophila melanogaster [7] = test: SMART (wing spot test), mutagenicity; assay type: in vivo; design: key to Statistical diagnosis: Small Single (m = 2) / Statistical diagnosis: Large Single (m = 5) / Statistical diagnosis: Twin (m = 5) / Statistical diagnosis: Total Spots (m = 2): + = positive; − = negative; i = inconclusive; conditions: 20 mM
# Procedure: Urethane (20 mM) was used as a mutagen (positive control) and DI was used as a negative control. The larvae were fed on each medium until pupation at 25 °C. Later, the wings of surviving flies were removed for mutant spot analysis. Approximately 40 wings in each group were scored for the presence of mutant spots, including small single spots, large single spots, and twin spots. The results were diagnosed using the estimation of spot frequencies and confidence limits for comparison with the control group, and the statistical significance was calculated as previously described by Frei and Würgler.
# [8] = TA 100, +S9, IQ (0.05 µg/Plate), 3.12 µM/plate
# [9] = TA 100, +S9, IQ (0.05 µg/Plate), 6.25 µM/plate
# [10] = TA 100, +S9, IQ (0.05 µg/Plate), 12.5 µM/plate
# [11] = TA 100, −S9, AF-2 (0.01 µg/Plate), 3.12 µM/plate
# [12] = TA 100, −S9, AF-2 (0.01 µg/Plate), 6.25 µM/plate
# [13] = TA 100, −S9, AF-2 (0.01 µg/Plate), 12.5 µM/plate
# [14] = TA 98, −S9, AF-2 (0.1 µg/Plate), 3.12 µM/plate
# [15] = TA 98, −S9, AF-2 (0.1 µg/Plate), 6.25 µM/plate
# [16] = TA 98, −S9, AF-2 (0.1 µg/Plate), 12.5 µM/plate
compound,measurement,setting,value
"Cn1c(N)nc2c3cccnc3ccc21 [IQ, 2-Amino-3-methylimidazo [4,5-f]quinoline]",Number of Revertant Colonies,"[1]; TA 100, +S9, standard mutagen alone, 0.05 µg/Plate",490 ± 20 (0)
"O=[Se]([O-])[O-].[Na+].[Na+] [Na2SeO3, sodium selenite]",Number of Revertant Colonies,"[2]; TA 98, +S9, 3.12 µM/plate",25 ± 5
same,Number of Revertant Colonies,"[2]; TA 98, +S9, 6.25 µM/plate",26 ± 4
same,Number of Revertant Colonies,"[2]; TA 98, +S9, 12.5 µM/plate",27 ± 5
same,Number of Revertant Colonies,"[2]; TA 98, −S9, 3.12 µM/plate",22 ± 2
same,Number of Revertant Colonies,"[2]; TA 98, −S9, 6.25 µM/plate",21 ± 1
same,Number of Revertant Colonies,"[2]; TA 98, −S9, 12.5 µM/plate",23 ± 3
same,mutagenicity in Ames test,"[2]; TA98 and TA 100, presence or absence of S9 homogenate",neither pro-mutagen nor mutagen
same,cell viability of hPBMCs,hPBMCs,not harmful
same,"effect on cell number (cell proliferation, Supplementary Figure S5)",MRC-5; 48 h vs starting point 0 h,killing effect
same,IC50,MRC-5; selenium concentration,10.5 µM
same,% mutagenic inhibition,[1]; [8],11%
same,Number of Revertant Colonies,[1]; [8],435 ± 24
same,% mutagenic inhibition,[1]; [9],18%
same,Number of Revertant Colonies,[1]; [9],404 ± 20
same,% mutagenic inhibition,[1]; [10],21%
same,Number of Revertant Colonies,[1]; [10],385 ± 28
same,inhibition of mutagen-induced revertant colonies,"[1]; TA100, +S9, IQ, 6.25–12.5 µM/plate",18–21%
same,anti-mutagenic activity in the AF-2-induced mutation model,"[1]; TA100, −S9",not observed
same,% mutagenic inhibition,[1]; [11],−17%
same,Number of Revertant Colonies,[1]; [11],541 ± 82
same,% mutagenic inhibition,[1]; [12],−24%
same,Number of Revertant Colonies,[1]; [12],570 ± 40
same,% mutagenic inhibition,[1]; [13],−30%
same,Number of Revertant Colonies,[1]; [13],597 ± 58
same,anti-mutagenic activity in the AF-2-induced mutation model,"[3]; TA98, −S9",not observed
same,% mutagenic inhibition,[3]; [14],9%
same,Number of Revertant Colonies,[3]; [14],315 ± 6
same,% mutagenic inhibition,[3]; [15],4%
same,Number of Revertant Colonies,[3]; [15],335 ± 24
same,% mutagenic inhibition,[3]; [16],5%
same,Number of Revertant Colonies,[3]; [16],329 ± 14
same,"effect on cell number (cell proliferation, Supplementary Figure S5)",LX-2; 48 h vs starting point 0 h,killing effect
same,IC50,LX-2; selenium concentration,11.2 µM
same,toxicity to pre 3T3-L1,3T3-L1,not toxic
same,"effect on cell number (cell proliferation, Supplementary Figure S5)",HEK-293; 48 h vs starting point 0 h,killing effect
same,IC50,HEK-293; selenium concentration,9 µM
same,% Hemolysis,"hRBCs; Se concentration 4 µM, 37 °C, three hours",0.01 ± 0.059%
same,% Hemolysis,"hRBCs; Se concentration 6.25 µM, 37 °C, three hours",0.14 ± 0.036%
same,% Hemolysis,"hRBCs; Se concentration 8 µM, 37 °C, three hours",0.06 ± 0.024%
same,% Hemolysis,"hRBCs; Se concentration 50 µM, 37 °C, three hours",0.08 ± 0.074%
same,"effect on cell number (cell proliferation, Supplementary Figure S5)",Caco2; 48 h vs starting point 0 h,killing effect
same,IC50,Caco2; selenium concentration,4 µM and ~4 µM
same,Number of Revertant Colonies,"[4]; TA 100, +S9, 3.12 µM/plate",121 ± 8
same,Number of Revertant Colonies,"[4]; TA 100, +S9, 6.25 µM/plate",122 ± 11
same,Number of Revertant Colonies,"[4]; TA 100, +S9, 12.5 µM/plate",126 ± 7
same,Number of Revertant Colonies,"[4]; TA 100, −S9, 3.12 µM/plate",117 ± 7
same,Number of Revertant Colonies,"[4]; TA 100, −S9, 6.25 µM/plate",110 ± 4
same,Number of Revertant Colonies,"[4]; TA 100, −S9, 12.5 µM/plate",112 ± 7
same,% mutagenic inhibition,[5]; 3.12 µM/plate,7%
same,Number of Revertant Colonies,[5]; 3.12 µM/plate,341 ± 14
same,% mutagenic inhibition,[5]; 6.25 µM/plate,6%
same,Number of Revertant Colonies,[5]; 6.25 µM/plate,345 ± 9
same,% mutagenic inhibition,[5]; 12.5 µM/plate,10%
same,Number of Revertant Colonies,[5]; 12.5 µM/plate,332 ± 23
"Nc1ccc2cc3ccccc3cc2c1 [2-AA, 2-aminoanthracene]",Number of Revertant Colonies,"[2]; TA 98, +S9, 0.5 µg/plate",318 ± 24
same,Number of Revertant Colonies,"[4]; TA 100, +S9, 0.5 µg/plate",590 ± 38
"CCOS(C)(=O)=O [EMS, ethyl methanesulfonate]",Frequency of Mutant Spots Per Individual: Large Single (>2 Cells),Drosophila melanogaster [6],2.850
same,Frequency of Mutant Spots Per Individual: Small Single (1–2 Cells),Drosophila melanogaster [6],7.400
same,Frequency of Mutant Spots Per Individual: Total Spots,Drosophila melanogaster [6],11.300
same,Frequency of Mutant Spots Per Individual: Twin Spots,Drosophila melanogaster [6],1.050
same,Number of Spots: Large Single (>2 Cells),Drosophila melanogaster [6],114
same,Number of Spots: Small Single (1–2 Cells),Drosophila melanogaster [6],296
same,Number of Spots: Total Spots,Drosophila melanogaster [6],452
same,Number of Spots: Twin Spots,Drosophila melanogaster [6],42
same,Statistical diagnosis: Large Single (>2 Cells),Drosophila melanogaster [6]; vs deionized water,+
same,Statistical diagnosis: Small Single (1–2 Cells),Drosophila melanogaster [6]; vs deionized water,+
same,Statistical diagnosis: Total Spots,Drosophila melanogaster [6]; vs deionized water,+
same,Statistical diagnosis: Twin Spots,Drosophila melanogaster [6]; vs deionized water,+
"CCOC(N)=O [Urethane, ethyl carbamate]",Frequency of Mutant Spots Per Individual: Large Single (m = 5),Drosophila melanogaster [7]; 40 wings,10.50
same,Frequency of Mutant Spots Per Individual: Small Single (m = 2),Drosophila melanogaster [7]; 40 wings,24.75
same,Frequency of Mutant Spots Per Individual: Total Spots (m = 2),Drosophila melanogaster [7]; 40 wings,36.25
same,Frequency of Mutant Spots Per Individual: Twin (m = 5),Drosophila melanogaster [7]; 40 wings,1.0
same,Number of Spots: Large Single (m = 5),Drosophila melanogaster [7]; 40 wings,420
same,Number of Spots: Small Single (m = 2),Drosophila melanogaster [7]; 40 wings,990
same,Number of Spots: Total Spots (m = 2),Drosophila melanogaster [7]; 40 wings,1450
same,Number of Spots: Twin (m = 5),Drosophila melanogaster [7]; 40 wings,40
same,Statistical diagnosis: Large Single (m = 5),Drosophila melanogaster [7]; vs DI,+
same,Statistical diagnosis: Small Single (m = 2),Drosophila melanogaster [7]; vs DI,+
same,Statistical diagnosis: Total Spots (m = 2),Drosophila melanogaster [7]; vs DI,+
same,Statistical diagnosis: Twin (m = 5),Drosophila melanogaster [7]; vs DI,+
"NC(=O)C(=Cc1ccc([N+](=O)[O-])o1)c1ccco1 [AF-2, 2-(2-furyl)-3-(5-nitro-2-furyl)-acrylamide]",Number of Revertant Colonies,"[2]; TA 98, −S9, 0.1 µg/plate",299 ± 20
same,Number of Revertant Colonies,"[1]; TA 100, −S9, standard mutagen alone, 0.01 µg/Plate",460 ± 36 (0)
same,Number of Revertant Colonies,"[3]; TA 98, −S9, standard mutagen alone, 0.1 µg/Plate",347 ± 20 (0)
same,Number of Revertant Colonies,"[4]; TA 100, −S9, 0.1 µg/plate",500 ± 73
Triton X-100,% Hemolysis,"hRBCs; positive control, run beside each Se form",98 ± 0.052% and 100 ± 0.23%
